For assay [1], the target named is single beta-lactamase in K. pneumoniae cell extracts (Escherichia coli, UniProt P62593, E102K/R162S). Briefly: Spectrophotometric hydrolysis assay on crude beta-lactamase extracts. The following applies: K. pneumoniae Pit 16 extract, beta-lactamase pI 5.6; 100 μM substrate.
Assay [2] concerns the target single beta-lactamase in K. pneumoniae cell extracts (Klebsiella pneumoniae, UniProt P0AD64, E235K/G234S). The assay is described as above. Conditions: K. pneumoniae Pit 82 extract, beta-lactamase pI 8.2; 100 μM substrate.
Assay [3] addresses single beta-lactamase in K. pneumoniae cell extracts (Klebsiella pneumoniae, UniProt P0AD64, G234S). Described as above. Conditions: K. pneumoniae Pit 100 extract, beta-lactamase pI 7.6; 100 μM substrate.
Assay [4] addresses single beta-lactamase in E. coli cell extracts (Escherichia coli, UniProt P62593, E102K/R162S). The description is as above. The following applies: E. coli Pit 64 extract, beta-lactamase pI 5.6; 100 μM substrate.
The target of assay [5] is single beta-lactamase in P. mirabilis cell extracts (Escherichia coli, UniProt P62593, E102K/R162S). The assay is described as above. The following applies: P. mirabilis Pit 85 extract, beta-lactamase pI 5.6; 100 μM substrate.
The subject of assay [6] is K. pneumoniae 225. Briefly: NCCLS microdilution susceptibility test. It is filed as cell-based, Klebsiella pneumoniae. The following applies: Klebsiella pneumoniae, 225. (Dilution methods test growth across graded concentrations, often in twofold steps.)
Assay [7] relates to K. pneumoniae 225. Briefly: NCCLS disk diffusion assay. Type of assay: cell-based, Klebsiella pneumoniae. The following applies: disk diffusion, Kleb 225.
The test system of a further assay is K. pneumoniae. Briefly: Agar dilution MIC, South African isolates. Conditions: tzp with tazobactam 4 μg/ml. Type of assay: cell-based, Klebsiella pneumoniae. The source says: (§1) The strains were provided in response to a request for all strains of Enterobacteriaceae, lacking inducible beta-lactamases, that were intermediate or resistant to cefotaxime or ceftazidime. […]
In general terms: In agar dilution, organisms are placed on agar that contains the substance at set levels.

A further assay relates to E. coli. Briefly: Agar dilution MIC, South African isolates. It is filed as cell-based, Escherichia coli. Conditions: tzp with tazobactam 4 μg/ml.
Description: as §1

Another assay deals with P. mirabilis. Briefly: Agar dilution MIC, South African isolates. It is filed as cell-based, Proteus mirabilis. Conditions: 4 strains, tzp with tazobactam 4 μg/ml. An excerpt:
During a period of three months in 1993, […] strains of Klebsiella pneumoniae (13 blood, 5 burn, 7 wound, 11 tracheal isolates), 4 strains of Proteus mirabilis (all wound isolates) and 4 strains of Escherichia coli (1 blood, 1 burn, 2 wound isolates) were collected from patients at the following medical centers in South Africa: Tygerberg Hospital near Cape Town, King Edward VIII Hospital in Durban, Chris Hani Baragwanath Hospital in Soweto and Pretoria Academic Hospital in Pretoria. The strains were provided in response to a request for all strains of Enterobacteriaceae, lacking inducible beta-lactamases, that were intermediate or resistant to cefotaxime or ceftazidime. […] Therefore accurate prevalence data were not obtained.
Antibiotic susceptibility was determined by standard disk diffusion (NCCLS Standard M2-T4, 1994) and agar dilution (NCCLS Standard M7-T2, 1994) procedures. Standard powders of antimicrobial agents were kindly provided by the following companies: piperacillin and tazobactam (Lederle Laboratories, Wayne, N.J.); cefoxitin and imipenem, (Merck, Rathway, N.J.); cefotaxime, (Hoechst-Roussel Pharmaceuticals Inc., Somerville, N.J.); ceftazidime, (Glaxo Group Research Ltd., Greenford, England); aztreonam and cefepime, (Bristol-Myers Squibb, Princeton, N.J.). Disks for agar diffusion were obtained from Becton Dickinson Microbiology Systems (Cockeysville, Md.). For quality control purposes, the following quality control strains were run simultaneously with the test organisms E. coli ATCC 25922, Pseudomonas aeruginosa ATCC 27853, E. coli ATCC 35218, and Staphylococcus aureus ATCC 29213. Throughout this study, results were interpreted using NCCLS criteria for disk diffusion (NCCLS Standard M2-T4, 1994) and broth dilution (NCCLS Standard M7-T2, 1994).

Assay [8] relates to E. coli C600N transconjugants. Briefly: Susceptibility of transconjugants. It is filed as cell-based, Escherichia coli. Conditions: E. coli C600N transconjugants of E. aerogenes 187, 200, 220, 184. The procedure:
(§2) Antibiotic susceptibilities were determined by standard disk-diffusion (NCCLS Standard M2-A6) and agar-dilution (NCCLS Standard M7-A4) procedures. Disks were obtained from Becton Dickinson Microbiology Systems (Cockeysville, Md.). Disk-diffusion susceptibilities to the following antibiotics were determined, ampicillin; amoxicillin clavulanic acid; aztreonam; cefazolin; cefoxitin; cefuroxime; cefotaxime; ceftriaxone; ceftazidime; cefepime; imipenem; gentamicin; trimethoprim/sulfamethoxazole and ciprofloxacin. […] The following quality control strains were run simultaneously with the test organisms Escherichia coli ATCC 25922, Pseudomonas aeruginosa ATCC 27853, and E. coli ATCC 35218. Throughout this study, results were interpreted using NCCLS criteria for disk diffusion (NCCLS M2-A6) and broth dilution (NCCLS M7-A4).
[…]. The filter paper mating technique with overnight incubation at 37° C. were performed as described previously (Philippon et al., Antimicrob. Agents Chemother., 33:1131-1136 (1989)). Transconjugants were selected on LB (Luria Bertani) agar [Difco (Detroit, Mich.)] plates containing 12 μg per ml nalidixic acid and 20 μg per ml ampicillin.

Assay [9] has as its system E. coli HB101 transformant (17 kb plasmid). The following applies: disk diffusion, Tr (17 kb) = transformant E. coli HB101. For orientation: In agar diffusion tests the substance spreads into inoculated agar from a disc or well.
Assay [10] deals with E. coli C600 transconjugant. The following applies: disk diffusion, Tc = transconjugate E. coli C600.
The subject of assay [11] is K. pneumoniae 225. Briefly: Three-dimensional test (enzymatic inactivation of antibiotics). Conditions: beta-lactamase-mediated hydrolysis by K. pneumoniae 225, lawn E. coli ATCC 25922.
In assay [12] the test system is E. aerogenes. It is filed as cell-based, Enterobacter aerogenes. How it is done: Antibiotic susceptibilities were determined by standard disk-diffusion (NCCLS Standard M2-A6) and agar-dilution (NCCLS Standard M7-A4) procedures. Disks were obtained from Becton Dickinson Microbiology Systems (Cockeysville, Md.). […] Throughout this study, results were interpreted using NCCLS criteria for disk diffusion (NCCLS M2-A6) and broth dilution (NCCLS M7-A4).

The subject of assay [13] is beta-lactamases in sonic extracts of E. aerogenes. Briefly: Isoelectric focusing overlay: cefotaxime hydrolysis, inhibitors, induction. The following applies: cefoxitin at 1/4 of the MIC.
The test system of assay [14] is K. pneumoniae 225. Briefly: MicroScan Walkaway microdilution susceptibility test. The following applies: K. pneumoniae 225. It is filed as cell-based, Klebsiella pneumoniae.
In assay [15] the test system is E. aerogenes. Briefly: Disk diffusion susceptibility test. It is filed as cell-based, Enterobacter aerogenes. Conditions: all the E. aerogenes strains. The procedure: as §2
The mark [16] stands for this setting: resistance phenotype Kpn1, 8 strains.
[17] abbreviates: resistance phenotype Kpn2, 28 strains.
[18] abbreviates: resistance phenotype Ec1, 3 strains.
The mark [19] stands for this setting: resistance phenotype Ec2, 1 strain.
Setting [20] is: 1 E. aerogenes strain with Bush group 1 and group 2be (SHV-3) enzymes.
[21] abbreviates: 1 E. aerogenes strain with Bush group 1 and group 2be (SHV-5) enzymes.
The mark [22] stands for this setting: 29 E. aerogenes strains with Bush group 1 and group 2be (SHV-4) enzymes.

Like-named read-outs stand apart in the source and are kept apart here. Bounds are passed on as bounds.

Turning to `O=C(Cc1cccs1)N[C@@H]1C(=O)N2C(C(=O)O)=C(/C=C/c3ccc([N+](=O)[O-])cc3[N+](=O)[O-])CS[C@H]12` [Nitrocefin], the Hydrolysis is 114 nmol of substrate hydrolyzed/m in assay [1]; 136 nmol of substrate hydrolyzed/m in [2]; 159 nmol of substrate hydrolyzed/m in [3]; 275 nmol of substrate hydrolyzed/m in [4]; 138 nmol of substrate hydrolyzed/m in [5].
For orientation: MIC means the lowest concentration found to suppress growth. In the case of `C[C@H]1[C@H](NC(=O)/C(=N\OC(C)(C)C(=O)O)c2csc(N)n2)C(=O)N1S(=O)(=O)O` [aztreonam], in the assay with K. pneumoniae 225 [6], the MIC is > 64 mg/L. The “Zone Size” value was 8 mm in the assay on K. pneumoniae 225 [7], 33 mm in assay [9] and 7 mm in assay [10]. Also, the MIC range in the assay with K. pneumoniae (setting [16]) is 16 to 64 mg/L; with K. pneumoniae (setting [17]), 1 to 128 mg/L; in the assay on K. pneumoniae (resistance phenotype Kpn3 (K. pneumoniae Pit 68), 1 strain, listed as atm), 2 mg/L; in the assay with E. coli (setting [18]), 16 mg/L; in the assay with E. coli (setting [19]), 2 mg/L; in the assay with P. mirabilis, 0.5 to 2 mg/L. Moreover, in assay [8], the “susceptibility after transfer of plasmids encoding SHV beta-lactamase genes” value (“susceptibility after transfer” below) is “decreased susceptibility”. For the same molecule, the three dimensional test result with K. pneumoniae 225 [11] was “positive”. The Hydrolysis is recorded as 0.6 nmol of substrate hydrolyzed/m in assay [1]; 0.9 nmol of substrate hydrolyzed/m in [2]; 0.9 nmol of substrate hydrolyzed/m in assay [3]; 0.4 nmol of substrate hydrolyzed/m in assay [4]; 0.5 nmol of substrate hydrolyzed/m in assay [5].
For `CO[C@@]1(NC(=O)Cc2cccs2)C(=O)N2C(C(=O)O)=C(COC(N)=O)CS[C@@H]21` [cefoxitin], the MIC with K. pneumoniae 225 [6] was > 64 mg/L. Further, the “Zone Size” value was determined as 6 mm with K. pneumoniae 225 [7], 25 mm in assay [9] and 7 mm in assay [10]. Moreover, the MIC range in the assay with K. pneumoniae (setting [16]) is 2 to 4 mg/L; in the assay with K. pneumoniae (setting [17]), 2 to 8 mg/L; in the assay on K. pneumoniae (resistance phenotype Kpn3 (K. pneumoniae Pit 68), 1 strain), > 128 mg/L; with K. pneumoniae (resistance phenotype Kpn3 (K. pneumoniae Pit 68), 1 strain, listed as fox), >128 mg/L; with E. coli (setting [18]), 4 mg/L; in the assay on E. coli (setting [19]), 8 mg/L. For the same molecule, the MIC range is 2 to 4 mg/L in the assay on P. mirabilis, >256 mg/L with E. aerogenes [12] (setting [20]), >256 mg/L in the assay with E. aerogenes [12] (setting [21]) and >256 mg/L with E. aerogenes [12] (setting [22]). Also, the three dimensional test result with K. pneumoniae 225 [11] is on record as “positive”. The Inducible by cefoxitin entry is reported as “yes” in assay [13] (SHV-3 strain (1), Bush group 1 enzyme pI 8.3); “no” in assay [13] (SHV-3 strain (1), Bush group 2be enzyme pI 6.9); “yes” in assay [13] (SHV-4 strains (29), Bush group 1 enzyme pI 8.3); “no” in assay [13] (SHV-4 strains (29), Bush group 2be enzyme pI 7.8); “yes” in [13] (SHV-5 strain (1), Bush group 1 enzyme pI 8.3); “no” in assay [13] (SHV-5 strain (1), Bush group 2Be enzyme pI 8.0).
Regarding gentamicin, the MicroScan susceptibility result with K. pneumoniae 225 [14] is listed as “Resistant”. Besides, the “Zone Size” value in the assay with K. pneumoniae 225 [7] is 8 mm; in assay [9] it was 25 mm; in [10], 8 mm. Further, the MIC range is 8 mg/L against E. aerogenes [12] (setting [20]), >128 mg/L against E. aerogenes [12] (setting [21]) and 1 to 16 mg/L with E. aerogenes [12] (setting [22]). In addition, in assay [8], the “susceptibility after transfer” value was “resistance”.
As for trimethoprim/sulfamethoxazole, the MicroScan susceptibility result with K. pneumoniae 225 [14] is “Resistant”. The “MicroScan MIC” value with K. pneumoniae 225 [14] (MicroScan test, unit not given) is listed as > 2/38. For the same molecule, the “Zone Size” value is on record as 6 mm with K. pneumoniae 225 [7], 31 mm in assay [9] and 8 mm in assay [10]. In the assay with E. aerogenes [15], the Disk diffusion susceptibility entry was “resistant”. In addition, in assay [8], the “susceptibility after transfer” value is given as “resistance”.

The values above are taken from patent US6893846B2, “Primers for use in detecting beta-lactamases” (priority 1998, dated 2005).
